The values below come from patent US8114382B2, “Myelin detection using benzofuran derivatives” (General Electric Company, priority 2006, dated 2012).

The structures appear in SMILES notation.

Series [1] relates to myelin. The series can be described thus: Staining of cryostatic sections of nervous tissue. The conditions noted are these: for labeling of brain or nerve tissue versus background autofluorescence: brain and nerve sections. Format: binding, rat. As to the method: 10 μm-thick sections (fresh frozen or formalin-fixed) of rat brain and cross-sections of sciatic, optic, and penile nerves were mounted on microscope slides, washed 3×5 min in phosphate buffered saline (PBS), then drained for 2 min. 1 mM stock solution of Formula I was prepared in 50% ethanol and 50% deionized water. The solution was vortexed and centrifuged at 10,000×g, and the supernatant, containing fully dissolved Formula I was transferred into a fresh tube. The solution was diluted to 25 uM in 50% ethanol. 200 uL of the 25 uM Formula I was pipetted onto the microscope slides. Control sections were treated with 50% ethanol. Parafilm was placed over sections during 10 min incubation at room temperature. Unbound compound was rinsed by serial immersion in 3×1 min washes in 50% ethanol, followed by a 1 min wash in de-ionized, distilled water. For cell body counterstaining, sections were immersed in 100 uL of 500 nM propidium iodide (PI) in PBS and carefully covered with parafilm. The sections were incubated for 5 min at room temperature. The samples were repeatedly rinsed and washed with PBS (3×10 min), followed by de-ionized, distilled water. The sections were covered with 20 uL of AntiFade Gold (Molecular Probes Inc, Carlsbad Calif.) and examined microscopically. Images were collected on a Leica DMRA2 fluorescent microscope equipped with filter cubes for near ultraviolet and visible fluorophores. Fluorescence was visualized using a Leica “A” filter cube while PI was imaged with a Leica “TX2” cube.
Staining of sciatic nerve sections by Formula I was also compared to a commercially available myelin stain (FluoroMyelin, Invitrogen). The tissue sections were […] by incubating in PBS for 5 minutes, followed by permeabilized with PBS containing 0.2% Triton X-100 for 20 minutes. The staining solution was prepared by 300-fold dilution of a stock solution of DAPI and a stock solution of Fluoromyelin green fluorescent myelin. Each section was flooded with 100 uL of the staining solution, covered with a small piece of parafilm and allowed to incubate for 20 min. The parafilm was removed and all sections were washed 3×5 min in PBS and rinsed with de-ionized, distilled water. After drying, the tissue sections were covered with 20 uL of AntiFade Gold (Molecular Probes Inc) and examined microscopically.

Series [2] is described as follows: Fluorescence excitation and emission peaks (Spetramax M5). Format: physicochemical. The conditions noted are these: 10 μM in aqueous solution. The protocol: Fluorescence excitation and emission peaks for Formula I, and benzofuran compounds A and B, (see Table 1) were measured using a Spetramax M5 (Molecular Devices). For Formula I, the excitation max was 380 nm, and the emission max was 470 nm. For compound A, the excitation max was 435 nm and the emission max was 550 nm. For compound B, the excitation max was 435 nm and the emission max was 535 nm. The final concentration of each analog in an aqueous solution was 10 μM. Log P, which is the logarithm of octanol-water partition coefficient, was determined for each analog using commercially available software (Table 1).

Series [3] can be described thus: Kinetics and biodistribution of [3H] labeled Formula I (standard uptake values). The series is classed as in vivo. The conditions noted are these: mice. The protocol: 100 μl of [^3H] labeled Formula I, diluted in saline to 740 kBq/ml, was injected into the tail vein of female mice weighing […]. Mice were killed by CO2 at 2, 5, 15, 30, or 60 min post-injection and organs immediately dissected out. Organs were weighed, transferred to scintillation tubes containing 2 ml Biolute-S (Zinsser Analytic GmbH, Germany), and tubes were shaken overnight at room temperature. Subsequently, 200 μL of glacial acetic acid was added and after 1 h, 10 mL of scintillation fluid was added (Ready Organics, Beckman Coulter). The tubes were shaken vigorously, allowed to rest for 1 h, and radioactivity was measured in scintillation counter (LS 6000LL, Beckman Instruments). Blood, also sampled at each time point, was collected in heparinized tubes. 10 μL of each sample was added to 2 ml Biolute-S. A similar procedure was used for the other organs studied.
Biodistribution of Formula I at different time points following administration was expressed as standard uptake values (SUVs), according to the following formula wherein RA is a measure of radioactivity: […]

The test system of series [4] is myelin of freshly explanted sciatic nerve. Kind of series: Staining of explanted nerves. The series is classed as binding, rat. The conditions noted are these: 20 min incubation, trans-illuminator ≧350 nm. As to the method: Freshly explanted sciatic nerve was incubated in Formula I then imaged under an ultraviolet transilluminator to visualize myelin. Rats were euthanized and within 30 min, 2 cm-long segments of their sciatic nerve tissue were collected, rinsed with PBS, then washed 3×5 min in 50% ethanol. The nerves were incubated at RT in the dark for 20 min in a solution of Formula I as prepared in Example 1. Control nerves were incubated in 50% ethanol. Nerves were rinsed 3×3 min in 50% ethanol, followed by de-ionized distilled water, and mounted on glass slides. Samples were placed on a trans-illuminator (long wavelength, ≧350 nm) and photographed.

Regarding `N#CC(C#N)=Cc1ccc(-c2oc3ccccc3c2CO)o1` [compound A], in series [1], the “labeling of brain or nerve tissue versus background autofluorescence” value is “did not label brain or nerve tissue above background autofluorescence”. In series [2], this molecule yielded an Emission max of 550 nm and an Excitation max of 435 nm.

With `CC(=O)OCc1c(-c2ccc(C=C(C#N)C#N)o2)oc2ccccc12` [compound B, 2-(2-diaminooxyethenyl-5-furanyl)-3-ethylacetyl benzofuran], the “labeling of brain or nerve tissue versus background autofluorescence” value in series [1] is given as “did not label brain or nerve tissue above background autofluorescence”. Also, in series [2], the Emission max was 535 nm and the Excitation max was 435 nm.

Take `O=Cc1ccc(-c2oc3ccccc3c2CO)o1` [Formula I, 2-(2-furanyl-5-formyl)-3-hydroxymethyl benzofuran]: in series [3] (peripheral administration, uptake in cortex and cerebellum), the blood-brain barrier penetration entry was “does not readily penetrate the blood-brain barrier”. Further, the “SUV / radioactive signal of sciatic nerve over time” value in series [3] (tail vein injection, 2-60 min) is “remained elevated throughout the sampling period”. Further, the “SUV of cortex and cerebellum” value in series [3] (tail vein injection, 2 min post-injection) was less than 0.2. Moreover, the “time for SUV of multiple tissues to decline to baseline levels” value in series [3] (tail vein injection, tissues such as blood and muscle) is recorded as not above 60 min. The “labeling of rat brain tissue section” value in series [1] (25 uM in 50% ethanol, 10 min, cerebellum, PI counterstain, FIG. 1) is “specific labeling of myelin”. In series [1] (cross-sections of peripheral nerves), the “labeling of sectioned peripheral nerves” value is recorded as “distinctive rings of labeling indicative of cross sections of myelin ensheathing unlabeled axon shafts”. For the same molecule, in series [2], the Emission max stood at 470 nm and the Excitation max came out at 380 nm. The “fluorescence of explanted sciatic nerve” value in series [4] was “distinctive fluorescence over background”.
